Patent US11846638B2, “Methods for detecting Na/K-ATPase-mediated Src signaling for diagnosis and prognosis of cancer” (Marshall University Research Corporation, priority 2017, dated 2023)
Entries after “also recorded” stand apart in the source; their conditions may differ.

Columns and labels:
AAC-19 and Y260A cells [1] = assay: Extracellular acidification rate (ECAR), Seahorse, in AAC-19 and Y260A cells; format: cell-based, porcine; details: for ECAR after oligomycin (maximal capacity of glycolysis): after addition of glucose
Experimental: Bioenergetics. Properties of cellular bioenergetics were characterized using Seahorse XFp Extracellular Flux Analyzer by measuring oxygen consumption rate (OCR) and extracellular acidification rate (ECAR) following the guidelines provided by the manufacturer. Prior to the start of Seahorse assay, optimal FCCP concentration for each cell line was determined by titration studies. Unless indicated otherwise, 10,000 cells per well were seeded with culture medium. Bicarbonate-free medium (Agilent Technologies) with different substrates (10 mM glucose, 2 mM glutamine and 1 mM pyruvate for Cell Mito Stress Test assays; 2 mM glutamine for Glycolysis Stress Test assays) was replaced one hour prior to the assay. Baseline OCR and ECAR rates were measured three times before various inhibitors, stimulants, substrates, or compounds were added through the drug delivery ports. In the PP2 study, cells were pretreated with 5 μM PP2 for 4 h and then analyzed.

AAC-19 and Y260A cells [2] = assay: Cellular ATP content (CellTiter-Glo) under glycolysis inhibition; format: cell-based, porcine; details: Y260A cells compared to AAC-19 cells; 2-DG 45 minutes in serum-free DMEM
Experimental: (§1) Biochemical measurement of ATP and lactate. ATP measurements were performed using CellTiter-Glo Luminescent Cell Viability Assay kit. 10,000 cells per well were cultured in 96-well culture plate. After treatment with 2-DG at indicated concentrations in serum-free DMEM for 45 minutes, assay reagents were reconstituted and added into culture plate. Luminescent counts of the reactants were determined from an opaque-walled 96-well plate with a microplate reader. Lactate measurement was done by colorimetric methods as described by previously. In PP2 study, culture medium containing serum and 5 μM PP2 was replaced in culture dish and collected after 4 hours for measurements.

[3] = system: α1 Na/K-ATPase Y260 phosphorylation; assay: Y260 phosphorylation of α1 Na/K-ATPase in LLC-PK1 cells (immunoblot); format: cell-based, porcine
Experimental: (§2) Cell culture and cell line generation. All cell lines were purchased from and maintained according to ATCC (Manassas, Va.). LLC-PK1 was serum starved before being used for signaling experiments. AAC-19, Y260A and DU145, A4-7 cell lines were cultured in the presence of 0.5% and 1% serum respectively for 24 hours before being used for the signaling experiments. LLC-PK1 cells were transfected (Lipofectamine 2000) with pEYFP-C1 vector containing α1 CD2, α2 CD2 or pEYFP-C1 empty vector. After verifying YFP expression visually, the cells were selected with 1 mg/ml G418 for one week. G418 resistant clones were selected and expanded. Cells were then cultured without G418 for at least three generations before being used for experiments. CD2N and CD2C cells were generated in similar manner. Y260A cells were generated by transfecting PY-17 cells with pRC/CMV-α1 AACm1 vector harboring mutation at Y260 and selected with ouabain (3 μM). Ouabain-resistant clones were isolated and expanded into stable cell lines. The cells were cultured for at least 3 generations without ouabain before being used for any experiment. DU-P1, A4-7 and A4-3 cell lines were generated by transfecting DU145 cells with a α1 Na/K-ATPase-specific siRNA containing vector and selecting with Puromycin as described above. All constructs were verified by DNA sequencing.
(§3) Immunoblot, Immunoprecipitation and Immunostaining Analysis. Immunoblot assays were performed as described previously. Intensity of bands were quantified with ImageJ software (NIH). Immunoprecipitation was performed by adding 5 μg of anti-Src (Millipore Cat #05-184) antibody to 500 μg of cell lysate (1 μg/μl concentration) or 8 μg of anti-α1 Na/K-ATPase antibody (Millipore Cat #06-520) to 800 μg of cell lysate ([…] concentration). Precipitated proteins were then analyzed as described previously. For immunostaining antibodies used—anti-α1 Na/K-ATPase antibody (Millipore Cat #05-369) and Alexa Fluor 488-conjugated anti-mouse secondary antibody.

[4] = system: α1 Na/K-ATPase Y10 phosphorylation; assay: Y10 phosphorylation of α1 Na/K-ATPase in LLC-PK1 cells (immunoblot); format: cell-based, porcine
Experimental: as §2, with “DU-P1, A4-7 and A4-3 cell lines were generated by transfecting DU145 cells with a α1 Na/K-ATPase-specific siRNA containing vector and selecting with Puromycin as described above. All constructs were verified by DNA sequencing.” left out
(§4) Immunoblot, Immunoprecipitation and Immunostaining Analysis. […] Intensity of bands were quantified with ImageJ software (NIH). […] Precipitated proteins were then analyzed as described previously. […]

ERK1/2 = assay: ERK activation (pERK1/2/ERK1/2) by Western blot in AAC-19 and Y260A cells; format: cell-based, porcine; details: for ERK phosphorylation (pERK1/2/ERK1/2): different concentrations of ouabain for 10 minutes
Experimental: as §2, §3

Y260A cells [5] = assay: Lactate production in culture medium of Y260A cells; format: cell-based, porcine; details: 5 μM PP2 for 4 h
Experimental: as §1

Y260A cells [6] = assay: qPCR of upregulated metabolic genes in Y260A cells; format: cell-based, porcine; details: 5 μM PP2 overnight
Text: RNA Extraction, cDNA Synthesis and Quantitative PCR. Total RNA was isolated with the QIAGEN RNeasy Mini Kit. The same amount of total RNA was used for synthesizing first-stand cDNA with the SuperScript III First-Stand Synthesis SuperMix for qRT-PCR (ThermoFisher). The cDNA from each sample was used as a template for the quantitative PCR (Syber green) with Roche LightCycler® 480 Real-Time PCR System. All primers were synthesized by Integrated DNA Technologies (IDT). β-actin was used as internal control.

A4-7 cells [7] = assay: Lactate production in medium of A4-7 cells; format: cell-based, human; details: 5 μM PP2 for 4 h
Experimental: as §1

A4-7 cells [8] = assay: Cell proliferation of A4-7 cells; format: cell-based, human; details: PP2, 48 hours
Experimental: Cell growth assay and MTT assay. Cell growth assay and MTT assay were performed as previously described.

Src [9] = assay: Src activation (pY418Src/c-Src) by Western blot in LLC-PK1, AAC-19 and Y260A cells; format: cell-based, porcine; details: for Src phosphorylation (pY418Src/c-Src): different concentrations of ouabain for 10 minutes
Experimental: as §2, §3

Akt = Akt activation (pS473Akt/Akt) by Western blot in AAC-19 and Y260A cells; format: cell-based, porcine; details: different concentrations of ouabain for 10 minutes
Experimental: as §2, with “DU-P1, A4-7 and A4-3 cell lines were generated by transfecting DU145 cells with a α1 Na/K-ATPase-specific siRNA containing vector and selecting with Puromycin as described above. All constructs were verified by DNA sequencing.” left out
as §4

EGFR [10] = assay: EGFR phosphorylation at Y845 in AAC-19 and Y260A cells; format: cell-based, porcine; details: AAC-19 cells; different concentrations of EGF
Experimental: as §2, with “DU-P1, A4-7 and A4-3 cell lines were generated by transfecting DU145 cells with a α1 Na/K-ATPase-specific siRNA containing vector and selecting with Puromycin as described above. All constructs were verified by DNA sequencing.” left out
as §4

Src [11] = assay: Src activation (pY418 Src/c-Src) by Western blot in DU-P1 and A4-7 cells; format: cell-based, human; details: different concentrations of EGF for 5 minutes
Experimental: as §2, with “DU-P1, A4-7 and A4-3 cell lines were generated by transfecting DU145 cells with a α1 Na/K-ATPase-specific siRNA containing vector and selecting with Puromycin as described above. All constructs were verified by DNA sequencing.” left out
as §4

EGFR [12] = assay: EGFR activation (pY845 EGFR/EGFR) by Western blot in DU-P1 and A4-7 cells; format: cell-based, human; details: different concentrations of EGF for 5 minutes
Experimental: as §2, with “DU-P1, A4-7 and A4-3 cell lines were generated by transfecting DU145 cells with a α1 Na/K-ATPase-specific siRNA containing vector and selecting with Puromycin as described above. All constructs were verified by DNA sequencing.” left out
as §4

Q: With `O=CC[C@@H](O)[C@H](O)[C@H](O)CO` [2-DG, 2-deoxyglucose] as the compound, how does the “ECAR after 2-DG” value (AAC-19 and Y260A cells [1]; AAC-19 and Y260A cells, after glucose and oligomycin) read?
A: completely reversed the increase

Q: What about the “cellular ATP content in response to inhibition of glycolysis” value (AAC-19 and Y260A cells [2]) of the same compound?
A: much more sensitive

Q: `CC(C)(C)n1nc(-c2ccc(Cl)cc2)c2c(N)ncnc21` [PP2] was tested. Which Y260 phosphorylation ([3]; PP2 5 μM, 30 minutes pretreatment) did it give?
A: attenuated

Q: What about the Y10 phosphorylation ([4]; PP2 5 μM, 30 minutes) of the same compound?
A: Neither inhibitor nor knockout of Src kinase affected

Q: What about the “basal ERK activities (increased in Y260A cells)” value (ERK1/2; Y260A cells, PP2) of the same compound?
A: sensitive to PP2; also recorded: sensitive to Src inhibitor

Q: What about the lactate production (Y260A cells [5]) of the same compound?
A: sufficient to reduce; also recorded: blocked the increase

Q: And the “glycolysis rate (ECAR)” value (AAC-19 and Y260A cells [1]; Y260A cells, 5 μM PP2 for 4 h)?
A: sufficient to reduce

Q: What about the “mRNA level of upregulated glycolytic/metabolic genes” value (Y260A cells [6]) of the same compound?
A: restored the mRNA level of most of these upregulated genes; also recorded: reduced the expression

Q: What about the “lactate production (increased in A4-7 cells)” value (A4-7 cells [7]) of the same compound?
A: sensitive to Src inhibition

Q: What about the cell proliferation rate (A4-7 cells [8]) of the same compound?
A: reversed; also recorded: inhibition

Q: For `CC[C@H]1/C=C/C=C/C[C@@H](C)[C@H](O)[C@@](C)(O)C(=O)[C@@H](C)[C@H](O)[C@@H](C)C(=O)[C@@H](C)[C@H](O)[C@@H](C)/C=C/C(=O)O[C@@H]2[C@H](C)[C@H](CC1)O[C@]1(CC[C@H](C)[C@H](C[C@@H](C)O)O1)[C@H]2C` [oligomycin], which “ECAR after oligomycin (maximal capacity of glycolysis)” value (AAC-19 and Y260A cells [1]; AAC-19 cells) is on record?
A: further increase

Q: What about the “ECAR after oligomycin (maximal capacity of glycolysis)” value (AAC-19 and Y260A cells [1]; Y260A cells) of the same compound?
A: not in Y260A cells

Q: Which Y260 phosphorylation ([3]; ouabain, function of time and concentration) does the source give for `C[C@@H]1O[C@@H](O[C@H]2C[C@@H](O)[C@]3(CO)[C@H]4[C@H](O)C[C@]5(C)[C@@H](C6=CC(=O)OC6)CC[C@]5(O)[C@@H]4CC[C@]3(O)C2)[C@H](O)[C@H](O)[C@H]1O` [ouabain] here?
A: increased

Q: And the Y10 phosphorylation ([4]; ouabain)?
A: no effect

Q: What about the “Src phosphorylation (pY418Src/c-Src)” value (Src [9]; AAC-19 cells) of the same compound?
A: stimulated

Q: And the “Src phosphorylation (pY418Src/c-Src)” value (Src [9]; Y260A mutant cells)?
A: abolished

Q: And the “ERK phosphorylation (pERK1/2/ERK1/2)” value (ERK1/2; AAC-19 cells)?
A: stimulated

Q: And the “ERK phosphorylation (pERK1/2/ERK1/2)” value (ERK1/2; Y260A mutant cells)?
A: abolished

Q: And the “ouabain-induced ERK activation (pERK1/2/ERK 1/2)” value (ERK1/2; Y260A mutant clone 24 cells)?
A: failed to respond

Q: And the “Akt phosphorylation (pS473Akt/Akt)” value (Akt; AAC-19 cells)?
A: stimulated

Q: What about the “Akt phosphorylation (pS473Akt/Akt)” value (Akt; Y260A mutant cells) of the same compound?
A: abolished

Q: How did the “Y260 phosphorylation of Na/K-ATPase” value ([3]; recombinant EGF, time and dose) turn out when “EGF: recombinant EGF, stimulates EGFR/Src signaling” was run?
A: time- and dose-dependent stimulation

Q: And the Src kinase activity (Src [9]; AAC-19 cells, different concentrations of EGF)?
A: stimulated

Q: And the “Src phosphorylation at Y418” value (Src [9]; LLC-PK1 cells, recombinant EGF, time and dose)?
A: time- and dose-dependent stimulation

Q: What about the “phosphorylation of EGFR at Y845” value (EGFR [10]) of the same compound?
A: stimulated

Q: And the “Src activation (pY418 Src/c-Src)” value (Src [11]; A4-7 cells)?
A: not in A4-7 cells

Q: And the “Src activation (pY418 Src/c-Src)” value (Src [11]; DU-P1 cells)?
A: able to stimulate

Q: And the “Y845 phosphorylation of EGFR” value (EGFR [12]; A4-7 cells)?
A: not in A4-7 cells

Q: And the “Y845 phosphorylation of EGFR” value (EGFR [12]; DU-P1 cells)?
A: able to stimulate
